Laboratory results from patent US6416967B2, “Method of using multicellular particulates to analyze malignant or hyperproliferative tissue” (Precision Therapeutics, Inc., priority 1996, dated 2002).

Legend:
Assay type in all cases: cell-based
human breast tumor cells = assay: Hormonal therapy microtiter assay, inhibition of cell proliferation (Example 5)
[1] = system: human brain tumor and human ovarian tumor cells; assay: Combined modality drug/radiation microtiter assay (Example 7); details: Taxol 0.5-25.0 μM with 2 Gy, or Taxol 5 μM with 1 Gy-6 Gy; through 5 days post-treatment; four tumor specimens
Procedure: Twenty-four (24) hours post-plating, cells in the microtiter plate wells were exposed to the chemotherapeutic agent Taxol. One set of plates was designed to have escalating Taxol doses with (0.5-25.0 μM) with a fixed radiation dose (2 Gy). A second set of plates was designed to have a fixed Taxol dose (5 μM) with an escalating radiation dose (1 Gy-6 Gy). The cells in the plates were irradiated using a Siemans Stabilipan X-ray machine operating at 250 kVp, 15 mA with a dose rate of 75 rad/minute.
For each of the two treatment schema, cell number per well was monitored as a function of time through 5 days post-treatment. Cell number relative to controls was determined and survival curves were fit.

[2] = system: human ovarian tumor cells; assay: Combination chemotherapy microtiter assay, Taxol and carboplatin (Example 4); details: then 48 hours, four tumor specimens
Procedure: Twenty-four (24) hours post-plating, the chemotherapeutic agent Taxol was applied to the wells in the microtiter plates. […] Rows 5 and 9 served as a control. The Taxol exposure time was two hours. Twenty-four hours later, the cells in the wells were exposed to carboplatin for two hours. The tumor cells in the wells were then incubated for another 48 hours.
Cell number relative to control was determined.

CC/C(=C(\c1ccccc1)c1ccc(OCCN(C)C)cc1)c1ccccc1 [Tamoxifen]
inhibition of cell proliferation (cell number relative to control) (human breast tumor cells; 10 nM to 20 μM, six doses, 24 hours exposure, then 72 hours, four breast tumor specimens): two of the four breast specimens tested showed an inhibition of cell proliferation
concentration range in which the responses occurred (human breast tumor cells; tested range 10 nM to 20 μM): mid to high

CC(=O)O[C@H]1C(=O)[C@@]2(C)[C@H]([C@H](OC(=O)c3ccccc3)[C@]3(O)C[C@H](OC(=O)[C@H](O)[C@@H](NC(=O)c4ccccc4)c4ccccc4)C(C)=C1C3(C)C)[C@]1(OC(C)=O)CO[C@@H]1C[C@@H]2O [Taxol]
cell killing by drug combined with radiation (cell number relative to controls, survival curves) [1]: Both additive and synergistic cell killing
cell number relative to control, escalating Taxol/fixed carboplatin ([2]; Taxol 1.0, 5.0, 25 μM for two hours, carboplatin 200 μM for two hours 24 h later): dose response relationship was observed

N.N.O=C([O-])C1(C(=O)[O-])CCC1.[Pt+2] [carboplatin]
cell number relative to control, fixed Taxol/escalating carboplatin ([2]; Taxol 5 μM for two hours, carboplatin 50, 200, 1000 μM for two hours 24 h later): dose response relationship was observed
